This is an account of results in PMC8149352 (Cancer Chemotherapy and Pharmacology, 2021).

Data set [1] has as its system P-glycoprotein. Further details: method as in PMID 32652442. To be noted: cited from earlier work.
On the set-up of data set [2]: method as in PMID 27745744. To be noted: cited from earlier work.
Data set [3] has as its system CYP2C8. Further details: method as in PMID 21838784. The settings on record: cited from earlier work.
Data set [4] is described as follows: Part B safety: adverse events (NCI CTCAE v5.0), safety population. It counts as in vivo, human (patients with solid tumors). To be noted: by treatment period. The method, then:
Part B of the core phase assessed the effect of the strong CYP3A inhibitor itraconazole on the PK of pamiparib in patients with solid tumors. All patients received a single dose of oral pamiparib 20 mg on days 1 and 7, and oral itraconazole 200 mg QD on days 3–8. The 20-mg pamiparib dose, the lowest dose strength available and one-sixth of the highest phase 1 dose (120 mg), was deemed sufficient to cover the plasma exposure increase due to complete blockade of CYP3A by itraconazole. Part B patients fasted for at least 8 h before and at least 4 h after pamiparib administration, except for day 7 upon which itraconazole administration occurred ~ 30 min after completing a meal and pamiparib administration followed within 5 min of itraconazole administration. Blood samples for PK analysis were obtained on days 1 and 7 at the same time points listed above for Part A. After completing the core phase in Part A and Part B, patients were offered participation in the extension phase, in which they were to receive pamiparib PO BID in 28-day cycles until disease progression, unacceptable toxicity, withdrawal of consent, or any other reason for discontinuation.
(§1) Adverse events (AEs) were monitored throughout the study and were graded according to the National Cancer Institute Common Terminology Criteria v5.0.
(§2) The safety population included all patients who received at least one dose of pamiparib. […] Plasma PK parameters were calculated from pamiparib concentration–time profiles using standard noncompartmental methods. PK parameters were calculated using Phoenix WinNonlin v6.4 or higher (Certara, Princeton, NJ, USA). […] Data for each treatment part were analyzed separately. Log-transformed AUC and Cmax values were analyzed using a linear mixed-effect model analysis assuming a fixed effect for treatment and a random effect for patients. The study design called for ~ 24 patients (12 in each part) to be enrolled to ensure at least 20 (10 in each part) completed the study. This sample size was based on the precedent set by other PK studies of a similar nature and was not based on power calculations.

Data set [5] deals with CYP3A rather than CYP2C8. Details: method as in PMID 11136296. The settings on record: cited from earlier work.
The nature of data set [6]: Part A safety: adverse events (NCI CTCAE v5.0), safety population. It counts as in vivo, human (patients with advanced solid tumors). The settings on record: Part A (N = 12); by treatment period. The method, then: This was an open-label, parallel-group, phase 1 study consisting of a 2-part core phase and an extension phase. Only results for the core phases are reported herein (Supplementary Fig. 1). […] Blood samples for PK analysis were obtained on days 1 and 10 at predose, and at 0.5, 1, 2, 4, 6, 9, 12, 24, and 48 h postdose. Pamiparib plasma concentrations were determined using a validated liquid chromatography–mass spectrometry/mass spectrometry method (lower limit of quantification 1.0 ng/mL) at Covance Laboratory Services (Salt Lake City, Utah).
as §1, §2

Where [7] appears, read: olaparib with itraconazole administration.
Where [8] appears, read: Part B (N = 13; N = 12 for pamiparib with itraconazole).

Consider `Cn1ncnc1[C@H]1c2n[nH]c(=O)c3cc(F)cc(c23)N[C@@H]1c1ccc(F)cc1` [talazoparib], for which, in data set [1], the P-glycoprotein substrate status result is on record as “substrate of P-glycoprotein”.

On to `O=C(c1cc(Cc2n[nH]c(=O)c3ccccc23)ccc1F)N1CCN(C(=O)C2CC2)CC1` [olaparib], for which the P-glycoprotein substrate status entry in data set [1] is reported as “substrate of P-glycoprotein”. Moreover, in data set [2] (setting [7]), the “AUC treatment ratio with itraconazole” value is 2.70 and the “Cmax treatment ratio with itraconazole” value is listed as 1.42. Moreover, in data set [2] (olaparib with itraconazole, one patient), the “AUC increase with itraconazole observed in one patient” value is given as “sevenfold”.

With `CC(C)(O)c1ccccc1CC[C@@H](SCC1(CC(=O)O)CC1)c1cccc(/C=C/c2ccc3ccc(Cl)cc3n2)c1` [montelukast], in data set [3], the “effect of CYP2C8 inhibitor gemfibrozil on montelukast AUC” value is “markedly increased” and the “effect of itraconazole coadministration on montelukast PK” value was “no significant effects”.

For `CCC(C)n1ncn(-c2ccc(N3CCN(c4ccc(OCC5COC(Cn6cncn6)(c6ccc(Cl)cc6Cl)O5)cc4)CC3)cc2)c1=O` (centres unmarked) [Itraconazole, itraconazole, reference compound], in data set [4] (setting [8]), the “All TEAEs (any grade), patients” value is listed as 2 (15.4) n (%); the “Any treatment-related TEAE, patients” value is 1 (7.7) n (%); the “Grade >= 3 TEAE, patients” value is reported as 1 (7.7) n (%); the “Serious AE, patients” value was 1 (7.7) n (%). In data set [4] (setting [8]), the “Treatment-related TEAE related to itraconazole only, patients” value is given as 0 n (%) and the “Treatment-related TEAE related to pamiparib only, patients” value is 0 n (%). In data set [4] (Part B), the “Serious AE related to both, patients” value is reported as 0 n (%); the “Serious AE related to itraconazole only, patients” value is reported as 0 n (%); the “Serious AE related to pamiparib only, patients” value is recorded as 0 n (%). Further, in data set [5], the “specificity of inhibition for CYP3A rather than CYP2C8” value is ~ 100 fold. The “in vivo CYP2C8 inhibition” value in data set [3] (inferred from montelukast clinical study) is “negligible”.

Take `CNCc1ccc(-c2[nH]c3cc(F)cc4c3c2CCNC4=O)cc1` [rucaparib]: the P-glycoprotein substrate status entry in data set [1] was “substrate of P-glycoprotein”.

Regarding `C[C@]1(c2nc3c(C(N)=O)cccc3[nH]2)CCCN1` [veliparib], the P-glycoprotein substrate status result in data set [1] was “substrate of P-glycoprotein”.

On to `CO[C@H]1/C=C/O[C@@]2(C)Oc3c(C)c(O)c4c(O)c(c(/C=N/N5CCN(C)CC5)c(O)c4c3C2=O)NC(=O)/C(C)=C\C=C\[C@H](C)[C@H](O)[C@@H](C)[C@@H](O)[C@@H](C)[C@H](OC(C)=O)[C@@H]1C` [Rifampin, rifampin, reference compound], for which, in data set [6], the “Any treatment-related TEAE, patients” value is listed as 1 (8.3) n (%); the “Grade >= 3 TEAE, patients” value is listed as 0 n (%); the “Serious AE, patients” value was 0 n (%); the “Treatment-related TEAE related to both, patients” value is reported as 0 n (%). Further, in data set [6], the “Treatment-related TEAE related to pamiparib only, patients” value is on record as 0 n (%) and the “Treatment-related TEAE related to rifampin only, patients” value was 1 (8.3) n (%).
